Results taken from PubChem BioAssay AID272 (DTP/NCI, 2004).
Results filed as inconclusive are left out.

Test system: Lewis lung carcinoma i.m., BDF1 mice, T/C %
Assay: NCI In Vivo Anticancer Drug Screen. Data for tumor model Lewis Lung Carcinoma (intramuscular) in B6D2F1 (BDF1) mice
Settings: schedule: Q01DX011 (ip)
Summary of the method: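 Value is the ratio of a treated-group measurement (T) to the matching vehicle-control measurement (C), using either survival or tumour size in mice bearing transplanted tumours.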

[1] = endpoint: mean tumor weight (est.), dose: 6.25 mg/kg/injection, vehicle: saline, higher = larger tumour
[2] = endpoint: mean tumor weight (est.), dose: 12.5 mg/kg/injection, vehicle: saline, higher = larger tumour
[3] = endpoint: mean tumor weight (est.), dose: 100.0 mg/kg/injection, vehicle: saline with Tween-80, higher = larger tumour
[4] = endpoint: mean tumor weight (est.), dose: 400.0 mg/kg/injection, vehicle: saline with Tween-80, higher = larger tumour
[5] = endpoint: median survival time, dose: 100.0 mg/kg/injection, vehicle: saline with Tween-80, higher = longer survival

Nc1cc(I)c2cccnc2c1O
T/C (endpoint: mean tumor weight (est.), dose: 6.25 mg/kg/injection, vehicle: saline with Tween-80, higher = larger tumour): 87 % of control
T/C (endpoint: mean tumor weight (est.), dose: 12.5 mg/kg/injection, vehicle: saline with Tween-80, higher = larger tumour): 97 % of control
T/C (endpoint: mean tumor weight (est.), dose: 25.0 mg/kg/injection, vehicle: saline with Tween-80, higher = larger tumour): 87 % of control
T/C (endpoint: median survival time, dose: 6.25 mg/kg/injection, vehicle: saline with Tween-80, higher = longer survival): 114 % of control
T/C (endpoint: median survival time, dose: 12.5 mg/kg/injection, vehicle: saline with Tween-80, higher = longer survival): 108 % of control
T/C (endpoint: median survival time, dose: 25.0 mg/kg/injection, vehicle: saline with Tween-80, higher = longer survival): 104 % of control

CCN1c2ccccc2C(Cl)(c2ccc(N(C)C)cc2)c2ccccc21
T/C (endpoint: mean tumor weight (est.), dose: 3.13 mg/kg/injection, vehicle: saline, higher = larger tumour): 121 % of control
T/C [1]: 50 % of control
T/C [2]: 47 % of control

Clc1nc2ccccc2nc1CI
T/C (endpoint: mean tumor weight (est.), dose: 5.0 mg/kg/injection, vehicle: saline, higher = larger tumour): 70 % of control
T/C (endpoint: median survival time, dose: 5.0 mg/kg/injection, vehicle: saline, higher = longer survival): 100 % of control

CCCCN(CC)C(=S)S[Te](SC(=S)N(CC)CCCC)(SC(=S)N(CC)CCCC)SC(=S)N(CC)CCCC
T/C [3]: 72 % of control
T/C (endpoint: mean tumor weight (est.), dose: 200.0 mg/kg/injection, vehicle: saline with Tween-80, higher = larger tumour): 54 % of control
T/C [4]: 29 % of control
T/C [5]: 121 % of control
T/C (endpoint: median survival time, dose: 200.0 mg/kg/injection, vehicle: saline with Tween-80, higher = longer survival): 114 % of control
T/C (endpoint: median survival time, dose: 400.0 mg/kg/injection, vehicle: saline with Tween-80, higher = longer survival): 121 % of control

CCCSc1ncnc2nc[nH]c12
T/C (endpoint: mean tumor weight, dose: 25.0 mg/kg/injection, vehicle: other, higher = larger tumour): 80 % of control
T/C (endpoint: median survival time, dose: 25.0 mg/kg/injection, vehicle: other, higher = longer survival): 102 % of control

C/C(=C\COc1ccc2ccc(=O)oc2c1)C1=CC(=O)C(C)(C)O1
T/C (endpoint: mean tumor weight, dose: 100.0 mg/kg/injection, vehicle: saline, higher = larger tumour): 55 % of control
T/C (endpoint: mean tumor weight, dose: 200.0 mg/kg/injection, vehicle: saline, higher = larger tumour): 47 % of control
T/C (endpoint: mean tumor weight, dose: 400.0 mg/kg/injection, vehicle: saline, higher = larger tumour): 62 % of control
T/C (endpoint: median survival time, dose: 100.0 mg/kg/injection, vehicle: saline, higher = longer survival): 108 % of control
T/C (endpoint: median survival time, dose: 200.0 mg/kg/injection, vehicle: saline, higher = longer survival): 100 % of control
T/C (endpoint: median survival time, dose: 400.0 mg/kg/injection, vehicle: saline, higher = longer survival): 102 % of control

COc1ccc(OC)c(/C=C/c2ccnc3ccccc23)c1
T/C (endpoint: mean tumor weight (est.), dose: 50.0 mg/kg/injection, vehicle: saline with Tween-80, higher = larger tumour): 84 % of control
T/C [3]: 75 % of control
T/C [4]: 77 % of control
T/C (endpoint: median survival time, dose: 50.0 mg/kg/injection, vehicle: saline with Tween-80, higher = longer survival): 100 % of control
T/C [5]: 102 % of control

COC(=O)C[C@](O)(CCC(C)(C)O)C(=O)O[C@@H]1C(OC)=C[C@]23CCCN2CCc2cc4c(cc2[C@H]13)OCO4
T/C (endpoint: mean tumor weight, dose: 0.25 mg/kg/injection, vehicle: saline, higher = larger tumour): 103 % of control
T/C (endpoint: mean tumor weight, dose: 0.5 mg/kg/injection, vehicle: saline, higher = larger tumour): 104 % of control
T/C (endpoint: mean tumor weight, dose: 0.5 mg/kg/injection, vehicle: water, higher = larger tumour): 75 % of control
T/C (endpoint: mean tumor weight, dose: 1.0 mg/kg/injection, vehicle: water, higher = larger tumour): 106 % of control
T/C (endpoint: median survival time, dose: 0.25 mg/kg/injection, vehicle: saline, higher = longer survival): 114 % of control
T/C (endpoint: median survival time, dose: 0.5 mg/kg/injection, vehicle: saline, higher = longer survival): 114 % of control

CC(=O)[O][Hg][c]1s[c]([Hg][O]C(C)=O)[c]([Hg][O]C(C)=O)[c]1[Hg][O]C(C)=O
T/C [1]: 45 % of control
T/C [2]: 37 % of control
T/C (endpoint: median survival time, dose: 12.5 mg/kg/injection, vehicle: saline, higher = longer survival): 91 % of control
